Results: paper PMC11255275, “Structural insights into the triple agonism at GLP-1R, GIPR and GCGR manifested by retatrutide” (Cell Discovery, 2024)

Assays:
Assay in all cases: cAMP accumulation, single-point mutated GCGR
GCGR mutants [1] = type: cell-based, human; settings: relative to WT
Description: (§1) HEK-293T cells were maintained at 37°C in 5% CO2 incubator and seeded onto 6-well cell […]
(§2) culture plates before transfection. After overnight culture, the cells were transiently transfected […]
(§3) with various constructs using Lipofectamine 2000 transfection reagent (Invitrogen). After 24 h, […]
(§4) the transfected cells were seeded onto 384-microtiter plates at a density of 3,000 cells per well […]
(§5) in stimulation buffer (HBSS supplemented with 5 mM HEPES, 0.1% (w/v) casein and 0.5 mM […]
(§6) 3-isobutyl-1-methylxanthine). Different concentrations of retatrutide in stimulation buffer were […]
(§7) added, and the stimulation lasted for 40 min. The reaction was stopped by addition of cAMP […]
(§8) detection buffer containing Eu-cAMP tracer and ULight-anti-cAMP. Plates were then incubated for […]
(§9) 60 min at RT. Time-resolved FRET signals were measured at 620 nm and 665 nm, respectively, by […]
(§10) an EnVision multilabel plate reader (PerkinElmer). Data were analyzed in GraphPad PRISM 9.5 […]
(§11) and all values were normalized to that of the wild-type (WT).
(§12) Supplementary Fig. 5 Effects of receptor mutation on retatrutide-induced cAMP […]
(§13) accumulation. a-c, Signaling profiles of GLP-1R (a), GIPR (b) and GCGR (c) mutants. cAMP […]
(§14) accumulation was measured in wild-type (WT) and single-point mutated GLP-1R, GIPR or […]
(§15) GCGR expressing HEK-293T cells. cAMP levels were normalized to the maximum response […]
(§16) of the WT and dose-response curves were analyzed using a three-parameter logistic equation.
(§17) Data were generated and graphed as means ± S.E.M. of at least three independent experiments performed in quadruplicate.
(§18) (1 picture or pasted object on this page, not shown here)
(§19) Supplementary Ta b l e S 5 Effects of the ligand-binding pocket residue mutation on retatrutide- […]
(§20) induced cAMP signaling at GLP-1R, GIPR or GCGR. […]
(§21) cAMP levels were normalized to the maximum response of the wild-type (WT) and dose-response […]
(§22) curves were analyzed using a three-parameter logistic equation to obtain pEC50 and Emax values. The […]
(§23) experiments were carried out independently at least three times. Data shown are means ± S.E.M. One- […]
(§24) way ANOVA was used to determine statistical difference. N.D., values that could not be determined due […]
(§25) to incomplete curve fits. *P< 0.05, **P< 0.01, ***P< 0.001 and ****P<0.0001.

GCGR mutants [2] = target: T1, GCGR mutants (Homo sapiens, UniProt P47871, W215A); type: cell-based; settings: GCGR W215(ECL1)A, HEK-293T, 40 min, TR-FRET, mean ± S.E.M., n at least 3
T1 construct: expressed in transfected cells; host or cells: HEK-293T
Description: as §1, §2, §3, §4, §5, §6, §7, §8, §9, §10, §11, §12, §13, §14, §15, §16, §17, §18, §19, §20, §21, §22, §23, §24, §25

GCGR mutants [3] = target: T2, GCGR mutants (Homo sapiens, UniProt P47871, Y138L); type: cell-based; settings: GCGR Y138(1.36b)L, HEK-293T, 40 min, TR-FRET, mean ± S.E.M., n at least 3
T2 construct: expressed in transfected cells; host or cells: HEK-293T
Description: as §1, §2, §3, §4, §5, §6, §7, §8, §9, §10, §11, §12, §13, §14, §15, §16, §17, §18, §19, §20, §21, §22, §23, §24, §25

GCGR mutants [4] = target: T3, GCGR mutants (Homo sapiens, UniProt P47871, Q293A); type: cell-based; settings: GCGR Q293(ECL2)A, HEK-293T, 40 min, TR-FRET, mean ± S.E.M., n at least 3
T3 construct: expressed in transfected cells; host or cells: HEK-293T
Description: as §1, §2, §3, §4, §5, §6, §7, §8, §9, §10, §11, §12, §13, §14, §15, §16, §17, §18, §19, §20, §21, §22, §23, §24, §25

GCGR mutants [5] = target: T4, GCGR mutants (Homo sapiens, UniProt P47871, Y202A); type: cell-based; settings: GCGR Y202(2.75b)A, HEK-293T, 40 min, TR-FRET, mean ± S.E.M., n at least 3
T4 construct: expressed in transfected cells; host or cells: HEK-293T
Description: as §1, §2, §3, §4, §5, §6, §7, §8, §9, §10, §11, §12, §13, §14, §15, §16, §17, §18, §19, §20, §21, §22, §23, §24, §25

GCGR mutants [6] = target: T5, GCGR mutants (Homo sapiens, UniProt P47871, S297A); type: cell-based; settings: GCGR S297(ECL2)A; HEK-293T, 40 min, TR-FRET; mean ± S.E.M., n at least 3
T5 construct: expressed in transfected cells; host or cells: HEK-293T
Description: as §1, §2, §3, §4, §5, §6, §7, §8, §9, §10, §11, §12, §13, §14, §15, §16, §17, §18, §19, §20, §21, §22, §23, §24, §25

GCGR mutants [7] = target: T6, GCGR mutants (Homo sapiens, UniProt P47871, D385A); type: cell-based; settings: GCGR D385(7.42b)A, HEK-293T, 40 min, TR-FRET, mean ± S.E.M., n at least 3
T6 construct: expressed in transfected cells; host or cells: HEK-293T
Description: as §1, §2, §3, §4, §5, §6, §7, §8, §9, §10, §11, §12, §13, §14, §15, §16, §17, §18, §19, §20, §21, §22, §23, §24, §25

GCGR mutants [8] = target: T7, GCGR mutants (Homo sapiens, UniProt P47871, Y138A); type: cell-based; settings: GCGR Y138(1.36b)A, HEK-293T, 40 min, TR-FRET, mean ± S.E.M., n at least 3
T7 construct: expressed in transfected cells; host or cells: HEK-293T
Description: as §1, §2, §3, §4, §5, §6, §7, §8, §9, §10, §11, §12, §13, §14, §15, §16, §17, §18, §19, §20, §21, §22, §23, §24, §25

GCGR mutants [9] = target: T8, GCGR mutants (Homo sapiens, UniProt P47871, W87A); type: cell-based; settings: GCGR W87(ECD)A, HEK-293T, 40 min, TR-FRET, mean ± S.E.M., n at least 3
T8 construct: expressed in transfected cells; host or cells: HEK-293T
Description: as §1, §2, §3, §4, §5, §6, §7, §8, §9, §10, §11, §12, §13, §14, §15, §16, §17, §18, §19, §20, §21, §22, §23, §24, §25

GCGR mutants [10] = target: T9, GCGR mutants (Homo sapiens, UniProt P47871, E362A); type: cell-based; settings: GCGR E362(6.53b)A, HEK-293T, 40 min, TR-FRET, mean ± S.E.M., n at least 3
T9 construct: expressed in transfected cells; host or cells: HEK-293T
Description: as §1, §2, §3, §4, §5, §6, §7, §8, §9, §10, §11, §12, §13, §14, §15, §16, §17, §18, §19, §20, §21, §22, §23, §24, §25

GCGR mutants [11] = target: T10, GCGR mutants (Homo sapiens, UniProt P47871, K205A); type: cell-based; settings: GCGR K205(ECL1)A; HEK-293T, 40 min, TR-FRET; mean ± S.E.M., n at least 3
T10 construct: expressed in transfected cells; host or cells: HEK-293T
Description: as §1, §2, §3, §4, §5, §6, §7, §8, §9, §10, §11, §12, §13, §14, §15, §16, §17, §18, §19, §20, §21, §22, §23, §24, §25

GCGR mutants [12] = target: T11, GCGR mutants (Homo sapiens, UniProt P47871, Q131A); type: cell-based; settings: GCGR Q131(1.29b)A; HEK-293T, 40 min, TR-FRET; mean ± S.E.M., n at least 3
T11 construct: expressed in transfected cells; host or cells: HEK-293T
Description: as §1, §2, §3, §4, §5, §6, §7, §8, §9, §10, §11, §12, §13, §14, §15, §16, §17, §18, §19, §20, §21, §22, §23, §24, §25

GCGR mutants [13] = target: T12, GCGR mutants (Homo sapiens, UniProt P47871, I194K); type: cell-based; settings: GCGR I194(2.67b)K, HEK-293T, 40 min, TR-FRET, mean ± S.E.M., n at least 3
T12 construct: expressed in transfected cells; host or cells: HEK-293T
Description: as §1, §2, §3, §4, §5, §6, §7, §8, §9, §10, §11, §12, §13, §14, §15, §16, §17, §18, §19, §20, §21, §22, §23, §24, §25

T12 sequence (P47871 26-477 I194K): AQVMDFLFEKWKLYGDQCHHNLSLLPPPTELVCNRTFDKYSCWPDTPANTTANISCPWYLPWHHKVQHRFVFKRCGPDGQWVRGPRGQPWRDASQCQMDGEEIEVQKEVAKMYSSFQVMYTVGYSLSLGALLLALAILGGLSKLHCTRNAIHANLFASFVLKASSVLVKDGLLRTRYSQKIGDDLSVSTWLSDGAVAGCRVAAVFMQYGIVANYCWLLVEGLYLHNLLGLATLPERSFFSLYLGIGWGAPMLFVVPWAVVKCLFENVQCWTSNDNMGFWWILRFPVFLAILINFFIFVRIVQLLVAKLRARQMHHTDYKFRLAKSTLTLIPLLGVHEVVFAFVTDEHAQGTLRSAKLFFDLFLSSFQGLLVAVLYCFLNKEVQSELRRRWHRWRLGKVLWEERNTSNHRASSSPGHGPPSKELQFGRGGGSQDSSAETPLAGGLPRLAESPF
T2 sequence (P47871 26-477 Y138L): as the sequence (P47871 26-477 I194K) above, with Y113L, K169I counted along it
T9 sequence (P47871 26-477 E362A): as the sequence (P47871 26-477 I194K) above, with K169I, E337A counted along it
T7 sequence (P47871 26-477 Y138A): as the sequence (P47871 26-477 I194K) above, with Y113A, K169I counted along it
T3 sequence (P47871 26-477 Q293A): as the sequence (P47871 26-477 I194K) above, with K169I, Q268A counted along it
T1 sequence (P47871 26-477 W215A): as the sequence (P47871 26-477 I194K) above, with K169I, W190A counted along it
T11 sequence (P47871 26-477 Q131A): as the sequence (P47871 26-477 I194K) above, with Q106A, K169I counted along it
T5 sequence (P47871 26-477 S297A): as the sequence (P47871 26-477 I194K) above, with K169I, S272A counted along it
T4 sequence (P47871 26-477 Y202A): as the sequence (P47871 26-477 I194K) above, with K169I, Y177A counted along it
T6 sequence (P47871 26-477 D385A): as the sequence (P47871 26-477 I194K) above, with K169I, D360A counted along it
T8 sequence (P47871 26-477 W87A): as the sequence (P47871 26-477 I194K) above, with W62A, K169I counted along it
T10 sequence (P47871 26-477 K205A): as the sequence (P47871 26-477 I194K) above, with K169I, K180A counted along it

## CC[C@H](C)[C@H](NC(=O)[C@H](Cc1ccccc1)NC(=O)[C@H](C)NC(=O)C(C)(C)NC(=O)[C@H](CCC(N)=O)NC(=O)[C@H](C)NC(=O)[C@H](CCCCNC(=O)COCCOCCNC(=O)CC[C@H](NC(=O)CCCCCCCCCCCCCCCCCCC(=O)O)C(=O)O)NC(=O)[C@H](CCCCN)NC(=O)[C@H](CC(=O)O)NC(=O)[C@H](CC(C)C)NC(=O)[C@](C)(CC(C)C)NC(=O)[C@@H](NC(=O)[C@H](CO)NC(=O)[C@H](Cc1ccc(O)cc1)NC(=O)[C@H](CC(=O)O)NC(=O)[C@H](CO)NC(=O)[C@@H](NC(=O)[C@H](Cc1ccccc1)NC(=O)[C@@H](NC(=O)CNC(=O)[C@H](CCC(N)=O)NC(=O)C(C)(C)NC(=O)[C@@H](N)Cc1ccc(O)cc1)[C@@H](C)O)[C@@H](C)O)[C@@H](C)CC)C(=O)N[C@@H](CCC(=O)O)C(=O)N[C@@H](Cc1ccc(O)cc1)C(=O)N[C@@H](CC(C)C)C(=O)N[C@@H](CC(C)C)C(=O)N[C@@H](CCC(=O)O)C(=O)NCC(=O)NCC(=O)N1CCC[C@H]1C(=O)N[C@@H](CO)C(=O)N[C@@H](CO)C(=O)NCC(=O)N[C@@H](C)C(=O)N1CCC[C@H]1C(=O)N1CCC[C@H]1C(=O)N1CCC[C@H]1C(=O)N[C@@H](CO)C(N)=O [retatrutide]
GCGR mutants [1]; GCGR S297(ECL2)A
  change of retatrutide potency by mutation: slightly increased
GCGR mutants [1]; GCGR Y138(1.36b)A
  decrease of cAMP signaling potency by mutation: 26.9 fold
GCGR mutants [1]; GCGR Y138(1.36b)L
  change of cAMP signaling potency by mutation: moderately increased
GCGR mutants [2]
  Emax ± S.E.M. (% WT): 101.34 ± 2.03 % WT
GCGR mutants [2]; ****P < 0.0001
  EC50: 0.0661 nM
GCGR mutants [3]
  Emax ± S.E.M. (% WT): 100.64 ± 1.39 % WT
GCGR mutants [3]; *P < 0.05
  EC50: 0.00398 nM
GCGR mutants [4]
  Emax ± S.E.M. (% WT): 99.73 ± 0.94 % WT
GCGR mutants [4]; **P < 0.01
  EC50: 0.00324 nM
GCGR mutants [5]
  Emax ± S.E.M. (% WT): 100.47 ± 2.15 % WT
GCGR mutants [5]; ****P < 0.0001
  EC50: 0.123 nM
GCGR mutants [6]
  EC50: 0.0049 nM
  Emax ± S.E.M. (% WT): 100.48 ± 1.34 % WT
GCGR mutants [7]
  Emax ± S.E.M. (% WT): 100.58 ± 1.33 % WT
GCGR mutants [7]; ****P < 0.0001
  EC50: 0.0479 nM
GCGR mutants [8]
  Emax ± S.E.M. (% WT): 101.28 ± 2.08 % WT
GCGR mutants [8]; ****P < 0.0001
  EC50: 0.195 nM
GCGR mutants [9]
  Emax ± S.E.M. (% WT): 101.97 ± 3.51 % WT
GCGR mutants [9]; ****P < 0.0001
  EC50: 0.631 nM
GCGR mutants [10]
  Emax ± S.E.M. (% WT): 100.39 ± 2.54 % WT
GCGR mutants [10]; ****P < 0.0001
  EC50: 0.0661 nM
GCGR mutants [11]
  EC50: 0.00933 nM
  Emax ± S.E.M. (% WT): 100.00 ± 2.06 % WT
GCGR mutants [12]
  EC50: 0.00676 nM
  Emax ± S.E.M. (% WT): 100.15 ± 1.51 % WT
GCGR mutants [13]
  Emax ± S.E.M. (% WT): 101.55 ± 2.54 % WT
GCGR mutants [13]; ****P < 0.0001
  EC50: 0.263 nM
